Measurements as given in US4241064A, “9H-Pyrido[3,4-b]indole derivatives” (Nippon Shinyaku Co. Ltd., priority 1978, dated 1980).
Where two headings read alike, the source gives them in different places. Values belong to the molecule of their own block, whether it stands above or below them.

How the values were obtained:
[1] = tested on: Ehrlich ascites cells; conditions: single i.p. at day 6, mitomycin C 1 mg/kg, compound 1 50 mg/kg
Experimental: (§1) Thus, ddY mice (male, body weights ca 18 g) were reared for a week and 1×10^6 Ehrlich ascites cells/animal were intraperitoneally transplanted. After 24 hours, mitomycin C or/and compound 1 were administered intraperitoneally for 7 consecutive days.

[2] = tested on: Ehrlich ascites cells; experiment: survival of mice transplanted with Ehrlich ascites cells, i.p. dosing for 7 consecutive days (potentiation of mitomycin C); type: in vivo, ddY mice; conditions: for Survival Rate (%): i.p. 7 days, compound 1 50 mg/kg/day, mitomycin C 0.5 mg/kg/day
Experimental: as §1

[3] = target: xanthine-oxidase (Bos taurus, UniProt P80457); experiment: xanthine-oxidase inhibitory activity (pre-incubation 5 min, then 10 μM xanthine; Kalker); type: biochemical; conditions: Table I; phosphate buffer pH 7.5, 10 μM xanthine; read-out: IC50 (xanthine-oxidase inhibition) (converted)
Excerpt: The foregoing compounds have the property of inhibiting the enzyme xanthine-oxidase. As is known, xanthine-oxidase inhibitors improve hyperuricacidemia by suppressing the formation of uric acid and, as such, find use as therapeutic and prophylactic agents in the treatment of gout, calculus in the urinary organ, tissue degeneration of the circulatory system, and the like. The xanthine-oxidase inhibitory activity is expressed in terms of the concentration of the agent at which a 50% inhibition of xanthine-oxidase activity is observed (IC50). This can be readily measured pre-incubation of test specimens at varying concentrations in phosphate buffer (pH 7.5) for 5 minutes, then adding 10 μM of xanthine, measuring the enzyme activity (Kalker), and comparing the assay result with the activity of a control to determine the percent inhibition. (The IC50 value being derived from a plot of concentration versus percent inhibition).
According to the present invention, commercial picrasma wood, dry pulverized picrasma wood or, preferably, the dry pulverized powder of its heart wood, is extracted with a polar organic solvent such as water or methanol and the extract is then concentrated to yield a whole picrasma extract. This extract is then fractionated as for example by Sephadex LH or silica gel chromatography. The fractions are assayed for xanthine-oxidase inhibitory activity and the active fraction this then purified as by recrystallization.

Chain of xanthine-oxidase (P80457 whole entry): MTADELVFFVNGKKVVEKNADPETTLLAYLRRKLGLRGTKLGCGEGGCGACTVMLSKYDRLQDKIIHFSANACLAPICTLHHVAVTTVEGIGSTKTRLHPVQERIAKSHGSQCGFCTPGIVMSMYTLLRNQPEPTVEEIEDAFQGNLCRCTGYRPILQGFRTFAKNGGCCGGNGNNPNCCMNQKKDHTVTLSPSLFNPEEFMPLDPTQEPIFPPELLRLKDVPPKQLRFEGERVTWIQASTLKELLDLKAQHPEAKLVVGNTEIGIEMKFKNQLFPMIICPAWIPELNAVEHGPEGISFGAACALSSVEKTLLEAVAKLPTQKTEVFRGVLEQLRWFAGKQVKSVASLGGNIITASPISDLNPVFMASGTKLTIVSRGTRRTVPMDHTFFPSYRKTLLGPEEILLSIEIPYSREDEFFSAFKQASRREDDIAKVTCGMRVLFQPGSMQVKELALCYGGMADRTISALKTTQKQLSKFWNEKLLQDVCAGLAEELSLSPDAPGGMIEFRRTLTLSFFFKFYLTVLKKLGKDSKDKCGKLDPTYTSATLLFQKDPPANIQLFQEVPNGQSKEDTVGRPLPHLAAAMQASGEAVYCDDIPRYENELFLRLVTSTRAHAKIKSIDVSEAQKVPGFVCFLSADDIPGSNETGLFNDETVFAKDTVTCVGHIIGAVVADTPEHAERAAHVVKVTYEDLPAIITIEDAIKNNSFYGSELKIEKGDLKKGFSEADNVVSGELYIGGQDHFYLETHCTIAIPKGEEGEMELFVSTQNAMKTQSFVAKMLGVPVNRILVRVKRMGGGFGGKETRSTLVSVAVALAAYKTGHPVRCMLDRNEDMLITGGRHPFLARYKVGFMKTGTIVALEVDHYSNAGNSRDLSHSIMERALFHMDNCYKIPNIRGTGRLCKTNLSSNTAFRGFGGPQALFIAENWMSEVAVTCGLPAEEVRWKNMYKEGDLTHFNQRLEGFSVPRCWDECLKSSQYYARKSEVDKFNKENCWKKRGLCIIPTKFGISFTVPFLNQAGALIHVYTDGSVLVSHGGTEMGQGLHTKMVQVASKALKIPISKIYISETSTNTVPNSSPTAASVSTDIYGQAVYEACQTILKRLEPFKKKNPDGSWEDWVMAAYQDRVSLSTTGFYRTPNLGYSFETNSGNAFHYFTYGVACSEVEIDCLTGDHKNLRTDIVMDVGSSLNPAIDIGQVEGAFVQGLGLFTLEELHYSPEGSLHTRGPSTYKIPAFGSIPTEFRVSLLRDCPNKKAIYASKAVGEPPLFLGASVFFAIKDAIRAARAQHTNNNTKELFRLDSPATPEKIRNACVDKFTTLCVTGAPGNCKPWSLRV

IC50 [3]: 0.336 µM
SMILES: OCc1ncc(O)c2c1[nH]c1ccccc12 [OH H CH2 OH, 1-Hydroxymethyl-4-Hydroxy-9H-pyrido[3,4-b]Indole]

IC50 [3]: 177 µM
SMILES: COC(=O)c1nccc2c1[nH]c1ccccc12 [H H COOCH3, 1-carbomethoxy-9H-pyrido[3,4-b]indole]

IC50 [3]: 1.1 µM
SMILES: O=C(O)c1ncc(O)c2c1[nH]c1ccccc12 [OH H COOH, 1-Carboxy-4-Hydroxy-9H-Pyrido[3,4-b]Indole]

IC50 [3]: 78.4 µM
SMILES: COC(=O)c1ncc(O)c2c1[nH]c1ccccc12 [OH H COOCH3, 1-Carbomethoxy-4-Hydroxy-9H-Pyrido[3,4-b]Indole]

IC50 [3]: 1.79 µM
SMILES: O=Cc1nc(O)cc2c1[nH]c1ccccc12 [H OH CHO, 1-Formyl-3-Hydroxy-9H-Pyrido[3,4-b]Indole]

More lines, now with the values behind:

SMILES: CO[C@@]12[C@H](COC(N)=O)C3=C(C(=O)C(C)=C(N)C3=O)N1C[C@@H]1N[C@@H]12 [Mitomycin, mitomycin C]
No. Surviving ([1]; Day 10): 7
No. Surviving ([1]; Day 11): 7
No. Surviving ([1]; Day 12): 7
No. Surviving ([1]; Day 13): 7
No. Surviving ([1]; Day 14): 7
No. Surviving ([1]; Day 15): 7
No. Surviving ([1]; Day 16): 7
No. Surviving ([1]; Day 17): 7
No. Surviving ([1]; Day 18): 5
No. Surviving ([1]; Day 19): 5
No. Surviving ([1]; Day 20): 4
No. Surviving ([1]; Day 21): 4
No. Surviving ([1]; Day 22): 4
No. Surviving ([1]; Day 23): 2
No. Surviving ([1]; Day 24): 2
No. Surviving ([1]; Day 25): 1
No. Surviving ([1]; Day 26): 1
No. Surviving ([1]; Day 27): 1
No. Surviving ([1]; Day 28): 1
Survival Rate (%) ([2]; Day 16): 100%
Survival Rate (%) ([2]; Day 17): 100%
Survival Rate (%) ([2]; Day 18): 100%
Survival Rate (%) ([2]; Day 19): 100%
Survival Rate (%) ([2]; Day 20): 100%
Survival Rate (%) ([2]; Day 21): 100%
Survival Rate (%) ([2]; Day 22): 90%
Survival Rate (%) ([2]; Day 23): 90%
Survival Rate (%) ([2]; Day 24): 90%
Survival Rate (%) ([2]; Day 25): 90%
Survival Rate (%) ([2]; Day 26): 90%
Survival Rate (%) ([2]; Day 27): 90%
Survival Rate (%) ([2]; Day 28): 80%
Survival Rate (%) ([2]; Day 29): 70%
Survival Rate (%) ([2]; Day 30): 70%
Survival Rate (%) ([2]; Day 33): 70%
Survival Rate (%) ([2]; Day 34): 60%
Survival Rate (%) ([2]; Day 38): 60%
Survival Rate (%) ([2]; Day 39): 50%
Survival Rate (%) ([2]; Day 48): 50%
Survival Rate (%) ([2]; Day 49): 40%
Survival Rate (%) ([2]; Day 52): 40%
Survival Rate (%) ([2]; Day 53): 30%
Survival Rate (%) ([2]; Day 56): 30%
Survival Rate (%) ([2]; Day 57): 20%
Survival Rate (%) ([2]; Day 58): 20%
Survival Rate (%) ([2]; Day 59): 20%
Survival Rate (%) ([2]; Day 60 after transplantation): 20%

SMILES: OCc1nccc2c1[nH]c1ccccc12 [H H CH2 OH, 1-Hydroxymethyl-9H-Pyrido[3,4-b]Indole]
IC50 [3]: 21.7 µM

SMILES: O=Cc1nccc2c1[nH]c1ccccc12 [H H CHO]
IC50 [3]: 4.08 µM

SMILES: O=Cc1ncc(O)c2c1[nH]c1ccccc12 [Compound 1, 1-formyl-4-hydroxy-9H-pyrido[3,4-b]indole]
Survival Rate (%) ([2]; Day 16): 100%
Survival Rate (%) ([2]; Day 17): 90%
Survival Rate (%) ([2]; Day 18): 80%
Survival Rate (%) ([2]; Day 19): 80%
Survival Rate (%) ([2]; Day 20): 70%
Survival Rate (%) ([2]; Day 21): 70%
Survival Rate (%) ([2]; Day 22): 40%
Survival Rate (%) ([2]; Day 23): 30%
Survival Rate (%) ([2]; Day 24): 10%
Survival Rate (%) ([2]; Day 25): 10%
Survival Rate (%) ([2]; Day 26): 10%
potentiation of the antitumor activity of mitomycin C and similar antibiotics ([2]; result in words, conventional laboratory models): significant potentiation of the antitumor activity of mitomycin C
IC50 [3]: 0.00306 µM

SMILES: CC(=O)Oc1cnc(C=O)c2[nH]c3ccccc3c12 [OCOCH3 H CHO, 1-Formyl-4-Acetoxy-9H-Pyrido[3,4-b]Indole]
IC50 [3]: 0.00669 µM
